{"source": "patent US9616025B2", "about": "“Compressed tablet containing Δ9-tetrahydrocannabinol, method for its manufacture and use of such tablet in oral treatment” (Echo Pharmaceuticals B.V., priority 2013, dated 2017)", "key": {"[1]": {"conditions": "cited from earlier work; for reported tmax-values: previous studies"}, "[2]": {"assay": "Rate of dissolution of THC, Ph. Eur. 2.9.3, 1 wt % SDS in water pH 7", "assay_type": "physicochemical", "conditions": "5 mg THC, pH 7, 36-41° C.", "description": "The rate of dissolution of THC from the compressed tablets described in Example 2 was tested according to European Pharmacopeia (Ph. Eur. 2.9.3) for oral tablets (5 mg THC). The rate of dissolution of pure THC (5 mg) was also measured according to the same method for comparison.\nThe dissolution medium consisted of a solution of 1 wt % SDS in water. The pH of the medium had been adjusted to pH 7 with diluted HCl. During the experiments, the temperature of the dissolution media was maintained between 36 and 41° C. under stirring.\nAfter dropping the tablets in the dissolution medium, samples were taken at various time intervals with a disposable syringe. The samples were filtered immediately over a syringe filter into a HPLC vial and analyzed by HPLC.\nTablets were prepared as in Example 2, except that the sucrose fatty ester (SML) was substituted by glyceryl monostearate (GMS). Dissolution tests as described in example 3 were performed with these tablets and the tablets described in Example 2."}}, "note": "Where two headings read alike, the source gives them in different places."}
{"smiles": "CCCCCCC(C)(C)c1cc(O)c2c(c1)OC(C)(C)C1CCC(=O)CC21", "note": "(centres unmarked) [nabilone]", "values": [{"measurement": "reported tmax-values", "setting": "[1]", "value": "120 to 240", "unit": "min"}]}
{"smiles": "CCCCCc1cc(O)c2c(c1)OC(C)(C)[C@@H]1CCC(C)=C[C@@H]21", "note": "[THC, Δ9-tetrahydrocannabinol]", "values": [{"measurement": "Plasma THC maximum concentrations", "setting": "[1]; after a 20 mg dose of oral THC (Ohlsson 1980)", "value": "4.4 to 11.0", "unit": "µg/L"}, {"measurement": "bioavailability", "setting": "[1]; inhaled (Ohlsson 1982)", "value": "up to 27%"}, {"measurement": "time of peak concentrations post dose", "setting": "[1]; oral", "value": "1 to 5", "unit": "h"}, {"measurement": "bioavailability", "setting": "[1]; orally administered (Ohlsson 1982)", "value": "approximately 6%"}, {"measurement": "reported tmax-values", "setting": "[1]", "value": "60 to 240", "unit": "min"}, {"measurement": "% (w/w) of THC dissolved", "setting": "[2]; 1 min", "value": "1.0 % (w/w)"}, {"measurement": "% (w/w) of THC dissolved", "setting": "[2]; 4 min", "value": "3.5 % (w/w)"}, {"measurement": "% (w/w) of THC dissolved", "setting": "[2]; 8 min", "value": "5.8 % (w/w)"}, {"measurement": "% (w/w) of THC dissolved", "setting": "[2]; 15 min", "value": "10.2 % (w/w)"}]}
{"smiles": "CCCCCc1cc(O)c2c(c1)OC(C)(C)[C@@H]1CCC(C)=C[C@@H]21", "note": "[dronabinol]", "values": [{"measurement": "time to maximal concentration of the active metabolite 11-OHTHC", "setting": "[1]; published", "value": "120 to 204", "unit": "min"}]}
